In US20260250318A1, “COMPOSITIONS AND METHODS FOR CROSSING THE BLOOD BRAIN BARRIER” (VOYAGER THERAPEUTICS, INC., priority 2022, published 2026):

Assays:
Conditions in all cases: synthetic library passage 3, intravenous, relative to wild-type AAV9
brain [1] = experiment: NGS fold enrichment of synthetic library (passage 3) in BALB/c mice, first cross-species screen; assay type: in vivo
Protocol: (§1) After creation of the synthetic library with the sub-selected variants, the synthetic library was screened (passage 3) in two NHPs (2-4 years of age) and two strains of mice, BALB/c (n=3, 6-8 weeks of age) and C57Bl/6 mice (n=3, 6-8 weeks of age), in a first cross-species evolution screen. The animals were injected intravenously with the synthetic library. After a period in vivo, (e.g., 28-days) RNA was extracted from nervous tissue, e.g., brain, spinal cord, and DRG of the NHPs and the brains of mice. Following RNA recovery and RT-PCR amplification, a systematic NGS enrichment analysis was performed, and the peptides comprised within the variants were identified and the capsid enrichment ratio for each variant compared to the wild-type AAV9 control was calculated (fold enrichment relative to wild-type AAV9) (Table 9). […] All animals were dosed intravenously at […] across the screen.

brain [2] = experiment: NGS fold enrichment of synthetic library (passage 3) in C57Bl/6 mice, first cross-species screen; assay type: in vivo
Protocol: as §1

[3] = system: brain, spinal cord, and DRG of the NHPs; experiment: NGS fold enrichment of synthetic library (passage 3) in NHPs, first cross-species screen; assay type: in vivo, cynomolgus macaques (Macaca fascicularis)
Protocol: as §1

[4] = RNA from brain of BALB/c mice, NGS
[5] = RNA from brain of C57Bl/6 mice, NGS
[6] = RNA from spinal cord of NHPs, NGS

Sequence	Fold enrichment over AAV9 in the brain of Mice (BALB/c) (brain [1]; [4])	Fold enrichment over AAV9 in the brain of Mice (C57Bl/6) (brain [2]; [5])	Fold enrichment over AAV9 in the brain of NHPs ([3]; RNA from brain of NHPs, NGS)	Fold enrichment over AAV9 in the spinal cord of NHPs [3, 6]	Fold enrichment over AAV9 in the brain of Mice (BALB/c) (brain [1]; RNA NGS, brain of BALB/c mice)	Fold enrichment over AAV9 in the brain of Mice (C57Bl/6) (brain [2]; RNA NGS, brain of C57Bl/6 mice)	Fold enrichment over AAV9 in the brain of NHPs ([3]; RNA NGS, brain of NHPs)	Fold enrichment over AAV9 in the spinal cord of NHPs ([3]; RNA NGS, spinal cord of NHPs)
GGSHTYGGGQNQQT	0.730 fold	0.982 fold	1.241 fold	13.065 fold	–	–	–	–
GGTRVVDSGQNQQT	–	–	–	–	0.370 fold	0.676 fold	1.676 fold	9.735 fold
GGVLVGGSGQNQQT	–	–	–	–	0.688 fold	1.527 fold	2.778 fold	0.178 fold
GGYHSQTSGQNQQT	–	–	–	–	1.525 fold	1.740 fold	1.978 fold	2.642 fold
GHAGSTGSGQNQQT	1.233 fold	1.332 fold	1.352 fold	2.829 fold	–	–	–	–
GHAHYQASGQNQQT	0.745 fold	0.803 fold	1.377 fold	7.299 fold	–	–	–	–
GHHTTVQSGQNQQT	–	–	–	–	0.755 fold	0.851 fold	2.177 fold	6.245 fold
GHLTMHNSGQNHQT	–	–	–	–	0.586 fold	1.030 fold	1.938 fold	1.798 fold
GHMKGVTSGQNQQT	–	–	–	–	0.413 fold	0.807 fold	1.081 fold	2.814 fold
GHPSPHVSGQNQQT	–	–	–	–	0.488 fold	0.551 fold	1.713 fold	0.416 fold
GHSFVNRSGQNQQT	–	–	–	–	0.756 fold	1.305 fold	2.447 fold	11.148 fold
GHTLTLSSGQNQQT	–	–	–	–	0.606 fold	0.648 fold	3.405 fold	5.648 fold
GIARTTISGQNQQT	–	–	–	–	0.330 fold	0.819 fold	1.078 fold	1.783 fold
GIFMQTPSGQNQQT	–	–	–	–	0.252 fold	0.938 fold	2.344 fold	6.198 fold
GIILGASSGQNQQT	–	–	–	–	0.865 fold	1.378 fold	3.630 fold	4.868 fold
